According to PubChem BioAssay AID1963835 (Molecular Pharmacology Branch, DTP, NCI, 2024):

System: 699152-130-R-J1-PDC complex spheroid viability
Assay: Anticancer human tumor 699152-130-R-J1-PDC patient-derived pancreatic carcinoma cell line growth inhibition [POLQ]
Conditions: for IC50: curve of first compound; for viability, T/C: stronger effect = lower value
Method in brief: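 Growth inhibition in 3D: complex spheroids (tumor PDC, HUVEC, MSC) treated with POLQ inhibitor combinations; where Cmax unknown, highest tested concentration 10 microM, except SN-38 at 1 microM.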
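Note: spheroids exposed to agents for 7 days before viability reading.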
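Throughout, for viability, T/C: percent of DMSO vehicle control viability so 100% = vehicle and 0% = no viable signal.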

O=c1[nH]cc(F)c(=O)[nH]1 + Cc1cccc(N(C)C(=O)C2C(O)CCN2c2nc(C)cc(C(F)(F)F)c2C#N)c1
IC50 (second compound 0.0316 µM): > 10 µM
IC50 (second compound 0.1 µM): > 10 µM
IC50 (second compound 0.316 µM): > 10 µM
IC50 (second compound 1 µM): > 10 µM
IC50 (second compound 3.16 µM): > 10 µM
IC50 (second compound 10 µM): > 10 µM
viability, T/C (second compound 0.0316 µM, first compound 0.0316 µM): 105%
viability, T/C (second compound 0.0316 µM, first compound 0.1 µM): 109%
viability, T/C (second compound 0.0316 µM, first compound 0.316 µM): 107%
viability, T/C (second compound 0.0316 µM, first compound 1 µM): 113%
viability, T/C (second compound 0.0316 µM, first compound 3.16 µM): 102%
viability, T/C (second compound 0.0316 µM, first compound 10 µM): 74.1%
viability, T/C (second compound 0.1 µM, first compound 0.0316 µM): 110%
viability, T/C (second compound 0.1 µM, first compound 0.1 µM): 113%
viability, T/C (second compound 0.1 µM, first compound 0.316 µM): 99.2%
viability, T/C (second compound 0.1 µM, first compound 1 µM): 107%
viability, T/C (second compound 0.1 µM, first compound 3.16 µM): 100%
viability, T/C (second compound 0.1 µM, first compound 10 µM): 82.6%
viability, T/C (second compound 0.316 µM, first compound 0.0316 µM): 120%
viability, T/C (second compound 0.316 µM, first compound 0.1 µM): 122%
viability, T/C (second compound 0.316 µM, first compound 0.316 µM): 106%
viability, T/C (second compound 0.316 µM, first compound 1 µM): 107%
viability, T/C (second compound 0.316 µM, first compound 3.16 µM): 120%
viability, T/C (second compound 0.316 µM, first compound 10 µM): 79.9%
viability, T/C (second compound 1 µM, first compound 0.0316 µM): 108%
viability, T/C (second compound 1 µM, first compound 0.1 µM): 104%
viability, T/C (second compound 1 µM, first compound 0.316 µM): 104%
viability, T/C (second compound 1 µM, first compound 1 µM): 111%
viability, T/C (second compound 1 µM, first compound 3.16 µM): 92.1%
viability, T/C (second compound 1 µM, first compound 10 µM): 74.7%
viability, T/C (second compound 3.16 µM, first compound 0.0316 µM): 113%
viability, T/C (second compound 3.16 µM, first compound 0.1 µM): 116%
viability, T/C (second compound 3.16 µM, first compound 0.316 µM): 108%
viability, T/C (second compound 3.16 µM, first compound 1 µM): 104%
viability, T/C (second compound 3.16 µM, first compound 3.16 µM): 117%
viability, T/C (second compound 3.16 µM, first compound 10 µM): 87.3%
viability, T/C (second compound 10 µM, first compound 0.0316 µM): 103%
viability, T/C (second compound 10 µM, first compound 0.1 µM): 102%
viability, T/C (second compound 10 µM, first compound 0.316 µM): 104%
viability, T/C (second compound 10 µM, first compound 1 µM): 92.8%
viability, T/C (second compound 10 µM, first compound 3.16 µM): 91.3%
viability, T/C (second compound 10 µM, first compound 10 µM): 84.6%
